Common to all, as to type: biochemical
One experiment addresses T1, human 11β-HSD1 (Homo sapiens, UniProt P28845).
T1 construct: The obtained PCR products of about 0.9 kbp, 1.2 kbp, and 0.9 kbp were subcloned into an expression vector pcDNA3.1+/Zeo; expressed in transfected cells
Put plainly: Enzyme inhibitory activity, human 11β-HSD1 (lysate of stably expressing HEK293 cells, cortisol by competitive ELISA). Particulars: human 11β-HSD1, cell lysate, 37° C. for 1 hour, read-out: h HSD1 in vitro assay (IC50 uM). Put shortly: (§1)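 Sonicated lysates of stably transfected cells (diluted to 0.1–0.4 mg/mL before addition) reacted for 1 h at 37 °C in pH 7.4 Tris/sucrose/EGTA/EDTA/MgCl2 buffer with 100 nmol/L cortisone or cortisol and 400 μmol/L NADPH or NAD+, then were heat-stopped at 95 °C. Inhibition rate = 100 minus residual activity.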
On the technique in general: In an ELISA, binding on a coated surface is turned into a signal by an enzyme label.

The target in the next experiment is T2, mouse 11β-HSD1 (Mus musculus, UniProt P50172).
T2 construct: The obtained PCR products of about 0.9 kbp, 1.2 kbp, and 0.9 kbp were subcloned into an expression vector pcDNA3.1+/Zeo; expressed in transfected cells
T2 sequence (P50172 whole entry): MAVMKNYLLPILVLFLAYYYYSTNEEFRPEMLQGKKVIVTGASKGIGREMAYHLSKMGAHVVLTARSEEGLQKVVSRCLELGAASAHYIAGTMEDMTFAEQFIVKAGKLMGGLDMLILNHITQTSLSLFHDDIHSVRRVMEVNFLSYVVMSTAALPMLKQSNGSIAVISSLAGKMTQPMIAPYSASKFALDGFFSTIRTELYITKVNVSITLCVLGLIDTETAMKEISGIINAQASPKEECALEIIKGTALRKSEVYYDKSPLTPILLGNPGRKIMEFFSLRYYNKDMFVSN
Nature of the experiment: Enzyme inhibitory activity, mouse 11β-HSD1 (lysate of stably expressing CHO-K1 cells, cortisol by competitive ELISA). To be noted: Table 2; mouse 11β-HSD1, cell lysate, 37° C. for 1 hour; read-out: m HSD1 in vitro assay (IC50 uM). Put shortly:
as §1

For a further experiment, the target named is T3, human 11β-HSD2 (Homo sapiens, UniProt P80365).
T3 construct: The obtained PCR products of about 0.9 kbp, 1.2 kbp, and 0.9 kbp were subcloned into an expression vector pcDNA3.1+/Zeo; expressed in transfected cells
T3 sequence (P80365 1-405): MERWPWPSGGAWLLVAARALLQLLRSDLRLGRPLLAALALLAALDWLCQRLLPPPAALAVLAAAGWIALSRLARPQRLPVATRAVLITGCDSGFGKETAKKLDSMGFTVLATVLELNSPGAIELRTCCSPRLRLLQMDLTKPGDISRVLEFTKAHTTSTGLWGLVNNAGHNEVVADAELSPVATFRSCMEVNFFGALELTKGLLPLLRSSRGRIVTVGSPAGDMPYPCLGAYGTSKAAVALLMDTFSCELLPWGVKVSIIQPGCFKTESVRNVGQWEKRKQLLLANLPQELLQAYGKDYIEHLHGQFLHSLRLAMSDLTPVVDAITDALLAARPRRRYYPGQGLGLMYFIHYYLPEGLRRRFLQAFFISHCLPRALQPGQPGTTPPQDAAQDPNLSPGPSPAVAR
Put plainly: Enzyme inhibitory activity, human 11β-HSD2 (lysate of stably expressing HEK293 cells, cortisol by competitive ELISA). Particulars: Table 1; human 11β-HSD2, cell lysate, 37° C. for 1 hour; read-out: h HSD2 in vitro assay (IC50 uM). How it is done: 1. Human 11β-HSD1-, Human 11β-HSD2- and Mouse 11β-HSD1-Gene Clonings and Establishment of Stably Expressing Cells
Human 11β-HSD1-, human 11β-HSD2-, and mouse 11β-HSD1-gene clonings were conducted using as a template a reverse transcription product of human-liver RNA, human-kidney RNA (CELL APPLICATIONS), and mouse-kidney RNA respectively, by means of PCR cloning with reference to nucleotide sequences of Genbank Accession Nos. NM_005525, NM_000196, and NM_008288. The obtained PCR products of about 0.9 kbp, 1.2 kbp, and 0.9 kbp were subcloned into an expression vector pcDNA3.1+/Zeo (Invitrogen).
Human 11β-HSD1- and human 11β-HSD2-expressing vectors were transfected into human kidney-derived cell line, HEK293 cells, using a transfection reagent, jet PEI (Funakoshi). Mouse 11β-HSD1 was transfected to Chinese hamster ovary-derived cell line, CHO-K1 cells. Selection was conducted with 200-400 μg/mL of zeocine (Invitrogen) to provide stably expressing-cell clones. The stably expressing cells were suspended in buffer solution A (20 mmol/L Tris-HCl, pH 7.4, 250 mmol/L sucrose, 1 mmol/L EGTA, 1 mmol/L EDTA, 1 mmol/L MgCl2), sonicated, and then stored at −80° C.
2. Assay of Enzyme Inhibitory Activity
An enzymatic reaction was conducted using a polystyrene 96-well plate. Each well was added with 1 μL of a test agent dissolved in DMSO and then diluted (0.003 to 3 mmol/L), and further added with 10 μL of cell lysate diluted to a concentration of 0.1 mg/mL to 0.4 mg/mL. Next, 90 μL of buffer solution A containing substrate (100 nmol/L cortisone or cortisol) and coenzyme (400 μmol/L NADPH or NAD+) was added and the mixture was incubated at 37° C. for 1 hour. The enzymatic reaction was stopped by treating at 95° C. for 3 minutes. Cortisol that was present in the reaction solution was determined by a competitive ELISA shown below.
Anti-rabbit IgG antibody (Chemi-con) diluted to 2 μg/mL with carbonate buffer solution (pH 9.6) was added in 100 μL each to a 96-well immuno plate (Nunc) and immobilized by an incubation at 4° C. overnight. 50 μL of enzymatic reaction solution was put onto the plates, and further, anti-cortisol antibody (Cosmo Bio) and HRP-labeled cortisol (Cosmo Bio), diluted with buffer solution B (25 mmol/L Tris-HCl pH 7.4, 137 mmol/L NaCl, 2.68 mmol/L KCl), were added in 50 μL respectively and incubated at 4° C. overnight. After washed three times with buffer solution B containing 0.05% Tween 20, the plates were allowed to develop color by adding 100 μL of color reagent, TMB (Moss). The color reaction was stopped by 25 μL of 1 mol/L sulfuric acid and the absorbance was determined at 450 nm with a microplate reader (Molecular Device, VersaMax).
The values of human 11β-HSD1, human 11β-HSD2, and mouse 11β-HSD1 activities were subtracted from 100, and the resultant values were regarded as the respective 11β-HSD inhibition rates of example compounds. […] The comparison of human 11β-HSD1 and human 11β-HSD2 inhibiting activities is shown in Table 1, and the comparison of human 11β-HSD1 and mouse 11β-HSD1 inhibiting activities is shown in Table 2.

SMILES strings stand for the structures. Like-named read-outs stand apart in the source and are kept apart here. Where only a bound is given, the exact number is not on record here.

As a reminder, the IC50 is the concentration that inhibits the measured activity by half.

T1 sequence (P28845 whole entry): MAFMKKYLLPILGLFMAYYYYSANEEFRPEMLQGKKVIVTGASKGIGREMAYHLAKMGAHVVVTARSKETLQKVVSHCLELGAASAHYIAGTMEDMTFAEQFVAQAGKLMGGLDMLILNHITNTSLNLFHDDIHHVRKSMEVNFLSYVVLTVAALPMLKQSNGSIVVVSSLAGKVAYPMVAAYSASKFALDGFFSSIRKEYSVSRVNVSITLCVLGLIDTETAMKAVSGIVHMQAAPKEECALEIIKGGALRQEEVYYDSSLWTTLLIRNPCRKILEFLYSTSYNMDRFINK

With `CC1(C)C(=O)N(C2C3CC4CC(C3)CC2C4)N1Cc1ccccc1Br` (stereo not shown) [Example 39, 1-(2-bromobenzyl)-4,4-dimethyl-2-(adamantan-2-yl)-1,2-diazetidin-3-one], the IC50 on human 11β-HSD1 (Table 1) was 0.015 µM; at mouse 11β-HSD1 it was 0.04 µM; at human 11β-HSD2, 3 µM.
For `CC1(C)C(=O)N(C2C3CC4CC(C3)CC2C4)N1Cc1ccccc1I` (stereo not shown) [Example 40, 1-(2-iodobenzyl)-4,4-dimethyl-2-(adamantan-2-yl)-1,2-diazetidin-3-one], the IC50 was 0.012 µM at human 11β-HSD1 (Table 1), 0.084 µM at mouse 11β-HSD1 and 10 µM on human 11β-HSD2.
`CC1(C)C(=O)N(C2C3CC4CC(C3)CC2C4)N1Cc1cc(F)ccc1Cl` (stereo not shown) [Example 41, 1-(2-chloro-5-fluorobenzyl)-4,4-dimethyl-2-(adamantan-2-yl)-1,2-diazetidin-3-one]: the IC50 is 0.023 µM at human 11β-HSD1 (Table 1), 0.13 µM on mouse 11β-HSD1 and 3.2 µM on human 11β-HSD2.
Take `CC1(C)C(=O)N(C2C3CC4CC(C3)CC2C4)N1Cc1ccc(F)cc1C(F)(F)F` (stereo not shown) [Example 48, 1-[4-fluoro-2-(trifluoromethyl)benzyl]-4,4-dimethyl-2-(adamantan-2-yl)-1,2-diazetidin-3-one]: the figures for the 50% inhibitory concentration (IC50) on human 11β-HSD1 (Table 1), at mouse 11β-HSD1 and on human 11β-HSD2 were 0.031 µM, 0.5 µM and over 30 µM, respectively.
On to `CCc1ccccc1CN1N(C2C3CC4CC(C3)CC2C4)C(=O)C1(C)C` (stereo not shown) [Example 50, 1-(2-ethylbenzyl)-4,4-dimethyl-2-(adamantan-2-yl)-1,2-diazetidin-3-one], for which the half-maximal inhibitory concentration (IC50) on human 11β-HSD1 (Table 1) was 0.042 µM; on mouse 11β-HSD1 it was 0.16 µM; on human 11β-HSD2, 6.6 µM.
Regarding `CC1(C)C(=O)N(C2C3CC4CC(C3)CC2C4)N1Cc1ccc(Cl)cc1Cl` (stereo not shown) [Example 52, 1-(2,4-dichlorobenzyl)-4,4-dimethyl-2-(adamantan-2-yl)-1,2-diazetidin-3-one], the concentration for half-maximal inhibition (IC50) on human 11β-HSD1 (Table 1) amounted to 0.078 µM; at mouse 11β-HSD1, 0.16 µM; at human 11β-HSD2, 9.5 µM.
Regarding `CC1(C)C(=O)N(C2C3CC4CC(C3)CC2C4)N1C(=O)c1ccccc1F` (stereo not shown) [Example 119, 1-[(2-fluorophenyl)carbonyl]-4,4-dimethyl-2-(adamantan-2-yl)-1,2-diazetidin-3-one], the IC50 on human 11β-HSD1 (Table 1) was 0.72 µM; on human 11β-HSD2, over 30 µM.
The corresponding values for `CC1(C)C(=O)N(C2C3CC4CC(C3)CC2C4)N1C(=O)c1ccccc1Br` (stereo not shown) [Example 120, 1-[(2-bromophenyl)carbonyl]-4,4-dimethyl-2-(adamantan-2-yl)-1,2-diazetidin-3-one] are 0.27 µM and over 30 µM.
For the compound `CC1(C)C(=O)N(C2C3CC4CC(C3)CC2C4)N1C(=O)c1cccc2ccccc12` (stereo not shown) [Example 141, 4,4-dimethyl-1-(naphthalen-1-ylcarbonyl)-2-(adamantan-2-yl)-1,2-diazetidin-3-one], the IC50 on human 11β-HSD1 (Table 1) was 0.071 µM; at human 11β-HSD2, 14 µM.
In the case of `CC1(C)C(=O)N(C2C3CC4CC(C3)CC2C4)N1c1ccccc1` (stereo not shown) [Example 181, 4,4-dimethyl-1-phenyl-2-(adamantan-2-yl)-1,2-diazetidin-3-one], the IC50 is 0.062 µM on human 11β-HSD1 (Table 1) and 3 to 30 µM at human 11β-HSD2.
As for `CC1(C)C(=O)N(C2C3CC4CC(C3)CC2C4)N1c1ccccc1Cl` (stereo not shown) [Example 189, 1-(2-chlorophenyl)-4,4-dimethyl-2-(adamantan-2-yl)-1,2-diazetidin-3-one], the figures for the half-inhibitory concentration (IC50) at human 11β-HSD1 (Table 1) and on human 11β-HSD2 were 0.022 µM and 3 to 30 µM, respectively.
As to `CC1(C)C(=O)N(C2C3CC4CC(C3)CC2C4)N1c1cccc(Cl)c1` (stereo not shown) [Example 190, 1-(3-chlorophenyl)-4,4-dimethyl-2-(adamantan-2-yl)-1,2-diazetidin-3-one], the half-inhibitory concentration (IC50) on human 11β-HSD1 (Table 1) is 0.093 µM; on human 11β-HSD2 it was 3 to 30 µM.
The matching figures for `COc1ccc(N2N(C3C4CC5CC(C4)CC3C5)C(=O)C2(C)C)cc1` (stereo not shown) [Example 203, 1-(4-methoxyphenyl)-4,4-dimethyl-2-(adamantan-2-yl)-1,2-diazetidin-3-one]: 0.026 µM and over 30 µM.
As to `CC1(C)C(=O)N(C2C3CC4CC(C3)CC2C4)N1c1ccc(Cl)cc1Cl` (stereo not shown) [Example 208, 1-(2,4-dichlorophenyl)-4,4-dimethyl-2-(adamantan-2-yl)-1,2-diazetidin-3-one], the IC50 was 0.02 µM at human 11β-HSD1 (Table 1) and 3 to 30 µM at human 11β-HSD2.
As for `CC1(C)C(=O)N([C@H]2C3CC4CC2C[C@](O)(C4)C3)N1c1cccc(Cl)c1Cl` [Example 231, trans-1-(2,3-dichlorophenyl)-2-(5-hydroxyadamantan-2-yl)-4,4-dimethyl-1,2-diazetidin-3-one], the 50% inhibitory concentration (IC50) is 0.088 µM at human 11β-HSD1 (Table 1) and over 30 µM at human 11β-HSD2.
As to `CC1(C)C(=O)N([C@H]2C3CC4CC2C[C@@](O)(C4)C3)N1c1ccc2ccccc2c1` [Example 248, cis-2-(5-hydroxyadamantan-2-yl)-4,4-dimethyl-1-(naphthalen-2-yl)-1,2-diazetidin-3-one], the figures for the half-inhibitory concentration (IC50) at human 11β-HSD1 (Table 1) and at human 11β-HSD2 were 0.028 µM and 3 to 30 µM, respectively.
For `CC1(C)C(=O)N(C2C3CC4CC(C3)CC2C4)N1/C=C/c1ccccc1` (stereo not shown) [Example 265, 4,4-dimethyl-1-[(E)-2-phenylethenyl]-2-(adamantan-2-yl)-1,2-diazetidin-3-one], the IC50 on human 11β-HSD1 (Table 1) was 0.036 µM; on human 11β-HSD2 it was 19 µM.
In the case of `CC1(C)C(=O)N([C@H]2C3CC4CC2C[C@](C(=O)O)(C4)C3)N1c1cccc2ccccc12` [Example 274, trans-4-[2-(naphthalen-1-yl)-3,3-dimethyl-4-oxo-1,2-diazetidin-1-yl]adamantane-1-carboxylic acid], the results for the half-inhibitory concentration (IC50) on human 11β-HSD1 (Table 1) and at mouse 11β-HSD1 were 0.011 µM and 0.25 µM, respectively.
With `CC1(C)C(=O)N([C@H]2C3CC4CC2C[C@](C(N)=O)(C4)C3)N1c1cccc2ccccc12` [Example 275, trans-4-[2-(naphthalen-1-yl)-3,3-dimethyl-4-oxo-1,2-diazetidin-1-yl]adamantane-1-carboxamide], the values for the concentration for half-maximal inhibition (IC50) on human 11β-HSD1 (Table 1) and at mouse 11β-HSD1 were 0.011 µM and 0.25 µM, respectively.
On to `CC1(C)C(=O)N(C2C3CC4CC2CC(C(N)=O)(C4)C3)N1c1cccc(Cl)c1Cl` (stereo not drawn) [Example 276, cis-4-[2-(2,3-dichlorophenyl)-3,3-dimethyl-4-oxo-1,2-diazetidin-1-yl]adamantane-1-carboxamide], for which the IC50 on human 11β-HSD1 (Table 1) was determined as 0.007 µM; on human 11β-HSD1 (Table 2), 0.007 µM; on mouse 11β-HSD1, 0.4 µM.
Regarding `CC1(C)C(=O)N([C@H]2C3CC4CC2C[C@](C(N)=O)(C4)C3)N1c1cccc(Cl)c1Cl` [Example 277, trans-4-[2-(2,3-dichlorophenyl)-3,3-dimethyl-4-oxo-1,2-diazetidin-1-yl]adamantane-1-carboxamide], the IC50 at human 11β-HSD1 (Table 1) came out at 0.007 µM; on mouse 11β-HSD1 it was 0.4 µM.

(Values after patent publication US8252781B2, “1,2-diazetidin-3-one derivatives and drugs containing same” (Kowa Company, Ltd., priority 2008, dated 2012).)
